For the test, the target named is Signal transducer and activator of transcription 3 (Homo sapiens) (UniProt P40763). As to the kind of experiment: STAT3 activation reporter response, dose response, cell-based (AID 1398).

Each structure is given as a SMILES string. The source made the active and inactive calls. How the calls were made is not given here.

With `CN1CCN(C(=O)CNc2ccc(C(F)(F)F)cc2[N+](=O)[O-])CC1`, the IC50 was 3.56 µM. Then `Cc1cc(C)n(-c2nnc3n2N=C(c2c[nH]c4ccccc24)CS3)n1`, with “inactive”; and `CCC(CC)NC(=O)Cc1ccccc1[N+](=O)[O-]`, with > 55.7 µM (inactive); and `Nc1nnc(Cc2c[nH]c3ccccc23)s1`, with > 55.7 µM (inactive).

Consider `Cn1nc(-c2ccc(Cl)cc2)c2cc(C(=O)NCCCN3CCOCC3)sc21`, for which the IC50 entry was “inactive”. Then `COc1ccc(C2c3[nH]c4ccccc4c3CCN2C(=O)c2ccc(=O)n(C)n2)c(F)c1` (stereo unspecified), with 2.44 µM.

For orientation: IC50 means the concentration that gives 50% inhibition.

Values taken from PubChem BioAssay AID1398 (The Scripps Research Institute Molecular Screening Center, 2008).
